Assay results taken from PMC9569593, “Measurement of Hepatic CYP3A4 and 2D6 Activity Using Radioiodine-Labeled O-Desmethylvenlafaxine” (International Journal of Molecular Sciences, 2022).

Experiments:
CYP3A4 [1] = tested on: CYP3A4; set-up: method as in PMID 26331791; details: non-labeled ODV ref 11; cited from earlier work
CYP3A4 [2] = assay: Inhibition of CYP-mediated metabolism of 125I-ODV by selective inhibitor (ketoconazole); format: in vitro ADME; details: ddY, mouse, pooled mouse liver homogenate (MLH), pH 7.4, probe 125I-ODV; inhibitor 10 µM, compared with NADPH [+]
Experimental: (§1) The pooled MLH was stored at −80 °C.
(§2) For inhibition analysis of specific isozymes of CYP-mediated metabolism of ^125I-ODV, selective inhibitors of CYP isozymes employed in this study included α-naphthoflavone (an inhibitor of CYP1A1 and 1A2), sulfaphenazole (CYP2C9), fluconazole (CYP2C19), paroxetine (CYP2D6), 4-methylpyrazole (CYP2E1), and ketoconazole (CYP3A4). These selective inhibitors were used to elucidate the CYP responsible for the biotransformation of ^125I-ODV. Each inhibitor was dissolved at 10 µM (dimethyl sulfoxide 0.8% v/v final concentration). […] The sample was incubated at 37 °C for 15 min with gentle shaking. The reaction was stopped by adding 100 µL ethanol, and the sample was centrifuged for 5 min at 18,000 g.

CYP2D6 = assay: Inhibition of CYP-mediated metabolism of 125I-ODV by selective inhibitor (paroxetine); format: in vitro ADME; details: ddY, mouse, pooled mouse liver homogenate (MLH), pH 7.4, probe 125I-ODV; inhibitor 10 µM, compared with NADPH [+]
Experimental: as §1, §2

CN(C)CC(c1ccc(O)cc1)C1(O)CCCCC1 (stereo not drawn) [ODV, O-desmethylvenlafaxine]
CYP isozyme metabolizing ODV (CYP3A4 [1]): metabolized only by CYP3A4

CC(=O)N1CCN(c2ccc(OCC3COC(Cn4ccnc4)(c4ccc(Cl)cc4Cl)O3)cc2)CC1 (stereo not drawn) [ketoconazole]
inhibition at 15 min, 10 µM (CYP3A4 [2]): 63%

Fc1ccc([C@@H]2CCNC[C@H]2COc2ccc3c(c2)OCO3)cc1 [paroxetine]
inhibition at 15 min, 10 µM (CYP2D6): 79%
